Data taken from patent publication US20240374587A1, “MEDICINE FOR PREVENTION AND TREATMENT OF DISEASES LINKED TO ANTI-OBESITY ACTIVITY” (Shionogi & Co., Ltd., priority 2021, published 2024).

What was measured:
human MGAT2 = human MGAT2 (Homo sapiens (Human), UniProt Q3SYC2); assay: Measurement of human MGAT2 inhibitory activity; assay type: biochemical; conditions: concentration exhibiting 50% enzyme inhibition
Description: Solutions of the compounds of the present invention in DMSO were each aliquoted into 0.2·μL portions in a 384-well polystyrene microplate produced by Corning Incorporated, and 5 μL of an enzyme solution prepared with an assay buffer (100 mmol/L phosphate buffer (pH 7.4) containing 2 mmol/L DTT) and 5 μL of a substrate solution (100 mmol/L phosphate buffer (pH 7.4), 30 μmol/L 2-Oleoylglycerol, 10 μmol/L Oleoyl-CoA) were added thereto, and the resultant was stirred and centrifuged, and incubated in a moist chamber at room temperature for 1 hour. After enzymatic reaction, 50 μL of a quenching solution (containing 0.2 μmol/L Diolein-d5, 0.4% formic acid, and 50% isopropanol) containing Internal Standard (IS) was added to terminate the reaction, and the resultant was sealed in a plate produced by Shimadzu GLC Ltd., and then stirred and centrifuged, and measurement was performed by using an electrospray ionization method with a RapidFire360 and Agilent 6550 Q-TOF mass spectrometer. Diolein as a reaction product (P) of 2-Oleoylglycerol as the substrate and an ammonium adduct ion of the IS were detected, and the peak intensity ratio, P/IS, was calculated from the peak heights to evaluate the inhibitory activity. Inhibitory activities with/without addition of enzyme were defined as Control (+)/Control (−), respectively, and the respective % inhibitions were defined as 0% inhibition and 100% inhibition. The inhibitory activity was calculated from the formula below with TIBCO Spotfire (produced by TIBCO Software Inc.) with the peak intensity ratio, P/IS, at the time of addition of the compound of the present invention being as Sample: […]

C57BL/6j mice (DIO mice) = assay: Anti-obesity effect test in DIO mice (body weight, food consumption); assay type: in vivo; design: concentration or dose not given beside the values; conditions: for Rate of decrease in body weight relative to control group: at final administration (Day 0 to Day 35, once a day)
Description: The anti-obesity effect of the compound and/or agent according to the present invention was examined by using C57BL/6j mice (DIO mice) provided with a high-fat diet (TestDiet; 58Y1).
Five-week-old male C57BL/6j mice (CLEA Japan. Inc.) were purchased, and grown with feeding of a high-fat diet under 12-hour light-dark cycles for 4 weeks to produce DIO mice. A medium (0.5% HPMC and physiological saline) was administered once a day from 3 weeks before administration of the compound. Randomization was performed for grouping (n=9 to 10) on the basis of body weight and change in food consumption during the period of administration for conditioning. From Day 0 to Day 35, gavage of vehicle (0.5% HPMC and physiological saline) (hereinafter, Control group), gavage of Compound (A) according to the present invention (hereinafter, (A)-administration group), subcutaneous administration of GLP-1 formulation (liraglutide or semaglutide) as Compound (B) according to the present invention (hereinafter, (B)-administration group), or both (hereinafter, the combined administration group) were performed once a day. The GLP-1 formulation was formulated in an increasing dose, and liraglutide and semaglutide were administered at 4 to 20 μg/kg and:3 to 15 μg/kg, respectively, once a day. During the administration period, daily body weight measurement and food consumption measurement once a week were performed.

Chain of human MGAT2 (Q3SYC2 whole entry): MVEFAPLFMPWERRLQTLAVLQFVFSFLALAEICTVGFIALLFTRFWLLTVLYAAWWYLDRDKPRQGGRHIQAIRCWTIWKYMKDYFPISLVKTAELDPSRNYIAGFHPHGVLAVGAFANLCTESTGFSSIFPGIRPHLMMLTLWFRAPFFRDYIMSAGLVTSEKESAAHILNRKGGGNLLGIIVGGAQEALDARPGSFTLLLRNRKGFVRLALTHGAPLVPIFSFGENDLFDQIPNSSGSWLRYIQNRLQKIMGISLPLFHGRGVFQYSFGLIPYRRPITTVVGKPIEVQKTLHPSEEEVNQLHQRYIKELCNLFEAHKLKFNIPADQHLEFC

How did the IC50 (human MGAT2) turn out when CS(=O)(=O)CC(=O)Nc1c2c(nn1CCCOC(F)(F)F)C[C@@]1(CCOc3cc(OCC(F)(F)F)ccc31)NC2=O [II-121] was run?
The IC50 was 2.91 nM.

What about the “Rate of decrease in food consumption relative to control group” value (C57BL/6j mice (DIO mice); 1st week of administration, liraglutide study) of the same compound?
The value was 18.9%.

What about the “Rate of decrease in food consumption relative to control group” value (C57BL/6j mice (DIO mice); 1st week of administration, semaglutide study) of the same compound?
Its value is 15.7%.

And the “Rate of decrease in food consumption relative to control group” value (C57BL/6j mice (DIO mice); 2nd week of administration, liraglutide study)?
Its value is 12.7%.

What about the “Rate of decrease in food consumption relative to control group” value (C57BL/6j mice (DIO mice); 2nd week of administration, semaglutide study) of the same compound?
Its value is 10.5%.

And the “Rate of decrease in food consumption relative to control group” value (C57BL/6j mice (DIO mice); 3rd week of administration, liraglutide study)?
The value was 9.9%.

What about the “Rate of decrease in food consumption relative to control group” value (C57BL/6j mice (DIO mice); 3rd week of administration, semaglutide study) of the same compound?
The value was 7.3%.

And the “Rate of decrease in food consumption relative to control group” value (C57BL/6j mice (DIO mice); 4th week of administration, liraglutide study)?
The value was 8.5%.

What about the “Rate of decrease in food consumption relative to control group” value (C57BL/6j mice (DIO mice); 4th week of administration, semaglutide study) of the same compound?
Its value is 3.9%.

And the “Rate of decrease in food consumption relative to control group” value (C57BL/6j mice (DIO mice); 5th week of administration, liraglutide study)?
The value was 7.5%.

And the “Rate of decrease in food consumption relative to control group” value (C57BL/6j mice (DIO mice); 5th week of administration, semaglutide study)?
Its value is 1.6%.

What about the “Rate of decrease in body weight relative to control group” value (C57BL/6j mice (DIO mice); liraglutide study (FIG. 1)) of the same compound?
Its value is 10.0%.

And the “Rate of decrease in body weight relative to control group” value (C57BL/6j mice (DIO mice); semaglutide study (FIG. 2))?
Its value is 5.5%.
